Paper PMC9576799, “Discovery of small molecule inhibitors that effectively disrupt IQGAP1-Cdc42 interaction in breast cancer cells” (Scientific Reports, 2022)

Assays:
[1] = biological target: T1, GST-IQGAP1-C / His-Cdc42-Q61L (Homo sapiens, UniProt P46940); test: HTRF IQGAP1-Cdc42 binding assay (validation / confirmatory); conditions: 50 nM His-Cdc42-Q61L, 1.5 nM GST-IQGAP1-C
T1 construct: the C-terminal half of IQGAP1 (comprising amino acids 864–1657) containing a GST-tag; made in house; host or cells: Escherichia coli (BL-21 for GST-IQGAP1-C)
T1 sequence (P46940 864-1657): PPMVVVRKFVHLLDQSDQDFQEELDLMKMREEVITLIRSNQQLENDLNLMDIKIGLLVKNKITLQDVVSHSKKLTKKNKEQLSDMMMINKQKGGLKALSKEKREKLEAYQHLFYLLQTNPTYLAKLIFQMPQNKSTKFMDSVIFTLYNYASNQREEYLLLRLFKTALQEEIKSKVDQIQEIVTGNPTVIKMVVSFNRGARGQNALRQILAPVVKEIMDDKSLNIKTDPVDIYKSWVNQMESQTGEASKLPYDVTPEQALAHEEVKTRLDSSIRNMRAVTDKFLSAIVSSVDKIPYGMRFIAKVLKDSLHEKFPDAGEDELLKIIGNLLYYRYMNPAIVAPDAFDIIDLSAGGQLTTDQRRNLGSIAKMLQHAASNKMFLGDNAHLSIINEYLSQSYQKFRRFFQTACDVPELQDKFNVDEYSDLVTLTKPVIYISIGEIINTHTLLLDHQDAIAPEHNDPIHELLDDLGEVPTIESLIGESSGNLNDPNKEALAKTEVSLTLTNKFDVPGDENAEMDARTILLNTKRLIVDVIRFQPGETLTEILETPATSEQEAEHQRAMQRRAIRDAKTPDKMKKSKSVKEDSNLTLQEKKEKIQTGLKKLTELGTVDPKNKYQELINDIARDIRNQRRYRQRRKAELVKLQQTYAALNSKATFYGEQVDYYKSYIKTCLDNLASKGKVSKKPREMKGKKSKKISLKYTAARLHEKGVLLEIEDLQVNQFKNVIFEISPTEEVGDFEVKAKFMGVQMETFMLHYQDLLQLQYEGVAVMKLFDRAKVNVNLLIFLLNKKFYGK
Protocol: Recombinant His-Cdc42-Q61L, GST-IQGAP1-C in combination with acceptor XL665 conjugated anti-His antibody (Anti-His-XL665) and donor Eu-cryptate conjugated anti-GST antibody (anti-GST-cryptate) were used for the HTRF assay to perform a high throughput screening of compound libraries in 1536-well white solid bottom medium-binding plates (Greiner Bio-One).
For the assay, His-Cdc42-Q61L and GST-IQGAP1-C proteins were diluted and pre-mixed in the binding buffer (50 mM Tris, pH 7.5, 150 mM NaCl and 0.01% Triton-X100) to final assay concentrations of 50 nM His-Cdc42-Q61L and 1.5 nM GST-IQGAP1-C. As control, 1.5 nM GST-IQGAP1-C in the absence of His-Cdc42-Q61L was used to gauge the maximal potential inhibition (IC100). Anti-His-XL665 and anti-GST-cryptate antibodies were prepared as threefold concentrated working mixture in binding buffer just prior to dispensing, with final assay concentrations of 5 ng/μL and 0.7 ng/µL, respectively. Pre-mixed proteins (4 µL/well) were dispensed to assay plates with a BioRAPTR FRD™ dispenser. […] The signal was detected immediately with an Envision plate reader (Perkin Elmer) using the HTRF settings (excitation at 340 nm, dual emission at 665 nm and 620 nm). […] The data were calculated as the ratio 665/620 × 10^4 to normalize for any effects in the donor channel. […]

[2] = system: filopodia in MDA-MB-231 cells; test: Filopodia quantification by confocal microscopy (FiloQuant); assay type: cell-based, human; conditions: 50 μM 2 h, EGF-stimulated
Protocol: MDA-MB231 cells were cultured in 24-well plates containing glass coverslips. When 60% confluent, cells were serum starved for 16 h, preincubated with 50 μM compound NCGC00131308 for 2 h, then incubated with 100 ng/mL epidermal growth factor (EGF) or vehicle for 10 min. Cells were fixed with 4% PFA and stained with Alexa Fluor 488 Phalloidin (Invitrogen™#A12379) and Hoechst 33342 (BD Biosciences #561908) to visualize F-actin and DNA, respectively. Coverslips were mounted with ProLong glass antifade mounting medium (Invitrogen), then imaged with a Zeiss LSM880 confocal microscope using a 63× objective lens. Cells and filopodia were segmented using FIJI/ImageJ[49]. Individual filopodia were segmented using the FiloQuant FIJI plugin[50]. Cells were segmented by Voronoi tessellation using Hoechst 33342 stained nuclei as seed points. The segmented images were quantified using the scikit-image Python package. The following geometric and spatial parameters of the filopodia were quantified: (1) the branch length of each filopodial segment, (2) cumulative area of each segment, (3) eccentricity, defined as the […], and (4) the number of filopodial segments per unit exposed cell membrane. Further data handling and plotting were done using the tidyverse R package. At least 200 cells were analyzed for each condition.

Row | SMILES | EC50 [1] [µM] | Emax ([1]; 3 h, read-out: efficacy, HTRF validation assay) [%] | filopodia area [2] | filopodia length [2] | filopodia shape (eccentricity) [2] | number of filopodia per cell [2]
1 | Cc1cccc(NC(=O)c2c(NC(=O)C(F)(F)F)sc3c2CCCCC3)c1 [NCGC00098561] | 7.94 | 84 | – | – | – | –
2 | CCN1CCN(c2ncc3c(n2)CCN(Cc2cc(Br)cs2)C3)CC1 [NCGC00131308] | – | – | significantly decreased | significantly decreased | reduced eccentricity | significantly decreased
